Source: ChEMBL document CHEMBL5523704, “Exploration of isoxazole analogs: Synthesis, COX inhibition, anticancer screening, 3D multicellular tumor spheroids, and molecular modeling” (Eur J Med Chem, 2024)
Values after ≈ are worked out from the molar mass of the structure shown.

Tests used:
[1] = target: T1, Prostaglandin G/H synthase 1 (Bos taurus, UniProt O62664); assay: Inhibition of bovine COX-1 using arachidonic acid as substrate preincubated for 10 mins followed by substrate addition and measured after 5 mins by ELISA method
T1 sequence (O62664 whole entry): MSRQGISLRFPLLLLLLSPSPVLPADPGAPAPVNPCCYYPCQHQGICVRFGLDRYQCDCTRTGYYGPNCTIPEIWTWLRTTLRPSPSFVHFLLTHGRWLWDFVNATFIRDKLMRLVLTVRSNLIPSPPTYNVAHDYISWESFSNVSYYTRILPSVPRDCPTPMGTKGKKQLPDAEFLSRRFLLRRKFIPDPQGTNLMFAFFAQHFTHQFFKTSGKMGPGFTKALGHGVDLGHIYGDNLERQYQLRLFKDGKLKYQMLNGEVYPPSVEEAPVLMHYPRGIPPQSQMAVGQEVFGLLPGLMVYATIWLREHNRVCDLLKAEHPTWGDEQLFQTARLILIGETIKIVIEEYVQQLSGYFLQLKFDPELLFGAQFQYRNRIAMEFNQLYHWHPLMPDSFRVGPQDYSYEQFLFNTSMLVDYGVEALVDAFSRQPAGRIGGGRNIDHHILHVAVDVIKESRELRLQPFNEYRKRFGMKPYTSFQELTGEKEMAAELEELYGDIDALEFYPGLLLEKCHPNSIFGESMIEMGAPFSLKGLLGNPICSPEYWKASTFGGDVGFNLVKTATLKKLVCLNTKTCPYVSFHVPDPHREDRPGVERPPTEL

[2] = Inhibition of human recombinant COX-1 using arachidonic acid as substrate preincubated for 10 mins followed by substrate addition and measured after 5 mins by ELISA method
COLO 205 = assay: Antiproliferative activity against human COLO 205 cells incubated for 72 hrs by MTS assay; type: functional, cell-based; settings: COLO 205, 72 h
Hep 3B2 [3] = assay: Antiproliferative activity against human Hep3B cells by MTS assay; type: functional, cell-based
HeLa [4] = assay: Antiproliferative activity against human HeLa cells by MTS assay; type: functional, cell-based
Huh-7 = assay: Antiproliferative activity against human Huh-7 cells incubated for 72 hrs by SRB method; type: functional, cell-based; settings: Huh-7, 72 h
HCT-116 = assay: Antiproliferative activity against human HCT-116 cells incubated for 72 hrs by SRB method; type: functional, cell-based; settings: HCT-116, 72 h
Hep 3B2 [5] = assay: Antiproliferative activity against human Hep3B cells; type: functional, cell-based
MCF7 [6] = assay: Antiproliferative activity against human MCF7 cells; type: functional, cell-based
Caco-2 = assay: Antiproliferative activity against human Caco-2 cells assessed as inhibition of cell growth incubated for 48 hrs by CellTiter 96 Aqueous One Solution Cell Proliferation Assay; type: functional, cell-based; settings: Caco-2, 48 h
[7] = Antiproliferative activity against human LX2 cells assessed as inhibition of cell growth incubated for 48 hrs by CellTiter 96 Aqueous One Solution Cell Proliferation Assay; type: toxicity, cell-based; settings: LX-2 cells
[8] = Antiproliferative activity against HEK293T cells assessed as inhibition of cell growth incubated for 48 hrs by CellTiter 96 Aqueous One Solution Cell Proliferation Assay; type: toxicity, cell-based, HEK-293T; settings: human
Hep 3B2 [9] = assay: cells; settings: Homo sapiens, Hep3B, 48 h
Description: Antiproliferative activity against human Hep3B cells assessed as inhibition of cell growth incubated for 48 hrs by CellTiter 96 Aqueous One Solution Cell Proliferation Assay

MCF7 [10] = assay: cells; settings: Homo sapiens, MCF7, 48 h
Description: Antiproliferative activity against human MCF7 cells assessed as inhibition of cell growth incubated for 48 hrs by CellTiter 96 Aqueous One Solution Cell Proliferation Assay

HeLa [11] = assay: cells; settings: Homo sapiens, 48 h
Description: Antiproliferative activity against human HeLa cells assessed as inhibition of cell growth incubated for 48 hrs by CellTiter 96 Aqueous One Solution Cell Proliferation Assay

HepG2 = assay: cells; settings: Homo sapiens, HepG2, 48 h
Description: Antiproliferative activity against human HepG2 cells assessed as inhibition of cell growth incubated for 48 hrs by CellTiter 96 Aqueous One Solution Cell Proliferation Assay

[12] = target: T2, Prostaglandin G/H synthase 1 (Ovis aries, UniProt P05979)
T2 sequence (P05979 whole entry): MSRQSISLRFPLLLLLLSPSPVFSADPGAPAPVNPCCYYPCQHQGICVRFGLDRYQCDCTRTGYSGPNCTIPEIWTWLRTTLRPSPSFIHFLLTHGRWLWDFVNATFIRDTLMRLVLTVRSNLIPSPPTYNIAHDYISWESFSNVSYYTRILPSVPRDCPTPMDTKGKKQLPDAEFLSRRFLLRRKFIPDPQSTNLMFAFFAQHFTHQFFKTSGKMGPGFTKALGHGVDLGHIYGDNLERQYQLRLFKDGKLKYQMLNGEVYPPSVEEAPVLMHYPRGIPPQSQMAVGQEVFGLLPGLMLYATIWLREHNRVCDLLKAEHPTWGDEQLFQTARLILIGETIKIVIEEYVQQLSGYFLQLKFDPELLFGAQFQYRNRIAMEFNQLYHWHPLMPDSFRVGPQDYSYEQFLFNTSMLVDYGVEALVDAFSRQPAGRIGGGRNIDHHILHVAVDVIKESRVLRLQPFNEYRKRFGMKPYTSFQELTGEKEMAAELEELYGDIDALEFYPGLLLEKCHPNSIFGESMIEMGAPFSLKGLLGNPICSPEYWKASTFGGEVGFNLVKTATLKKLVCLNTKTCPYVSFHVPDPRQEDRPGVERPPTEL
Description: Inhibition of ovine COX-1 by EIA method

COc1cccc(-c2nc(C(=O)Nc3ccc(C(F)(F)F)cc3)cs2)c1
IC50 [1]: 239 nM
IC50 [2]: 191 nM
IC50 (COLO 205): 30800 nM

COc1ccc(NC(=O)c2c(-c3ccccc3Cl)noc2C)cc1OC
IC50 (Hep 3B2 [3]): 24 µg/mL (≈ 64.3 µM)
IC50 (HeLa [4]): 15.5 µg/mL (≈ 41.5 µM)

COc1ccc(-c2nc(C(=O)Nc3cc(OC)c(OC)c(OC)c3)cs2)cc1
IC50 (Huh-7): 17500 nM
IC50 (HCT-116): 14600 nM

Cc1onc(-c2c(F)cccc2Cl)c1C(=O)Nc1ccc(C(C)(C)C)cc1
IC50 (Hep 3B2 [5]): 2.77 µg/mL (≈ 7.16 µM)
IC50 (MCF7 [6]): 9.31 µg/mL (≈ 24.1 µM)

COc1cccc2c1C(=O)c1c(O)c3c(c(O)c1C2=O)C[C@@](O)(C(=O)CO)C[C@@H]3O[C@H]1C[C@H](N)[C@H](O)[C@H](C)O1 [DOXORUBICIN]
IC50 (Caco-2): 24 nM
IC50 at 48 h [7]: 210 nM
IC50 at 48 h [8]: 38 nM
IC50 (Hep 3B2 [9]): 25 nM
IC50 (MCF7 [10]): 53 nM
IC50 (HeLa [11]): < 10 nM

O=c1[nH]cc(F)c(=O)[nH]1 [FLUOROURACIL]
IC50 (Caco-2): 4750 nM
IC50 at 48 h [7]: 178 nM
IC50 at 48 h [8]: 4070 nM
IC50 (HepG2): 4070 nM
IC50 (Hep 3B2 [9]): 5110 nM
IC50 (MCF7 [10]): 6510 nM
IC50 (HeLa [11]): 7790 nM

CC(C(=O)O)c1cccc(C(=O)c2ccccc2)c1 (stereo not drawn) [KETOPROFEN]
IC50 [12]: 35 nM
